Measured values from patent US12528768B2, “Crystalline form of a 7H-benzo[7]annulene-2-carboxylic acid derivative” (Sanofi, priority 2019, dated 2026).

Columns and labels:
[1] = Physical stability of the solid form (exposure to heat, moisture, nitrogen or ambient conditions, followed by XRPD); assay type: physicochemical; settings: for stability of the solid form (in words): overall judgement; for result of exposure to heat and/or moisture: heat (for example 40° C.) and/or moisture
Experimental: II. X-Ray Powder Diffraction (XRPD) Analyses were carried out at room temperature on a Brucker D4 Endeavor instrument using the Bragg-Brentano parafocusing geometry. A sealed copper anode X-ray tube was used (λ, CuKα average=1.54178 Å). A LynxEye linear detector completed the setup. A counting time of few seconds per step in an angular range of from few 2-Theta degrees to several dozen 2-Theta degrees with a 0.016° step size in 20 was used for each sample analysis. For each experiment, the powder was deposited onto the surface of a sample holder.

[2] = Water sorption isotherms using Dynamic Vapor Sorption (DVS); assay type: physicochemical; settings: for Change in Mass / Change in Mass (water uptake): DVS sorption step, 25° C.; for Change in Mass (water uptake): target RH 95%; for weight gain determined by DVS: about 25° C. (±0.2° C.)
Experimental: III. Water Sorption Isotherms Using Dynamic Vapor Sorption (DVS) Experiments were performed on DVS automated gravimetric vapor sorption analyzer (Surface Measurement Systems Ltd., London, UK). Uptake and loss of water by the sample were gravimetrically measured with an ultra-microbalance with a mass resolution of ±0.1 μg. A controlled relative humidity was generated by mixing different proportions of dry and water saturated carrier gas streams. The temperature was maintained constant at 25.0±0.2° C., by enclosing the entire system in a temperature controlled incubator. A sample size between 5 and 20 mg was used. Prior to being exposed to any water vapor the sample was dried at 0% relative humidity (RH) to remove most surface water present and establish a dry, baseline mass. Next, the sample was exposed to an increasing relative humidity raised by steps of 5% RH, from 0 to 95% RH.

| stability of the solid form (in words) [1] | Change in Mass ([2]; target RH 0%) | Change in Mass ([2]; target RH 10%) | Change in Mass ([2]; target RH 20%) | Change in Mass ([2]; target RH 30%) | Change in Mass ([2]; target RH 40%) | Change in Mass ([2]; target RH 50%) | Change in Mass ([2]; target RH 60%) | Change in Mass ([2]; target RH 70%) | Change in Mass ([2]; target RH 80%) | Change in Mass ([2]; target RH 90%) | SMILES | also measured |
| --- | --- | --- | --- | --- | --- | --- | --- | --- | --- | --- | --- | --- |
| physically unstable | – | – | – | – | – | – | – | – | – | – | O=C(O)c1ccc2c(c1)CCCC(c1ccc(Cl)cc1Cl)=C2c1ccc(O[C@H]2CCN(CCCF)C2)cc1 [1,4-dioxane solvate] | conversion at room temperature ([1]; room temperature, one week): converts at room temperature to an unknown poorly crystallized solid form |
| – | – | – | – | – | – | – | – | – | – | – | O=C(O)c1ccc2c(c1)CCCC(c1ccc(Cl)cc1Cl)=C2c1ccc(O[C@H]2CCN(CCCF)C2)cc1 [2-propanol solvate] | transformation upon heating ([1]; upon heating): transforms into anhydrate Form 3 which itself generally transforms into anhydrate Form 2 |
| unstable | – | – | – | – | – | – | – | – | – | – | O=C(O)c1ccc2c(c1)CCCC(c1ccc(Cl)cc1Cl)=C2c1ccc(O[C@H]2CCN(CCCF)C2)cc1 [DCM solvate] | result of exposure to heat and/or moisture [1]: formation of the anhydrate Form 1; result of exposure to heat and/or N2 ([1]; heat and/or N2): formation of the anhydrate Form 4 |
| unstable | – | – | – | – | – | – | – | – | – | – | O=C(O)c1ccc2c(c1)CCCC(c1ccc(Cl)cc1Cl)=C2c1ccc(O[C@H]2CCN(CCCF)C2)cc1 [THF solvate] | result of exposure to heat and/or moisture [1]: formation of the anhydrate form 1 |
| physically unstable | – | – | – | – | – | – | – | – | – | – | O=C(O)c1ccc2c(c1)CCCC(c1ccc(Cl)cc1Cl)=C2c1ccc(O[C@H]2CCN(CCCF)C2)cc1 [acetone solvate] | result of exposure to ambient conditions or dry nitrogen [1]: converts to low crystalline materials |
| metastable | 0.00% | 0.20% | 0.54% | 0.99% | 1.54% | 2.09% | 2.57% | 2.99% | 3.36% | 3.76% | O=C(O)c1ccc2c(c1)CCCC(c1ccc(Cl)cc1Cl)=C2c1ccc(O[C@H]2CCN(CCCF)C2)cc1 [anhydrate crystalline Form 1, 6-(2,4-dichlorophenyl)-5-[4-[(3S)-1-(3-fluoropropyl)pyrrolidin-3-yl]oxyphenyl]-8,9-dihydro-7H-benzo[7]annulene-2-carboxylic acid] | Change in Mass (water uptake) [2]: 4.07%; weight gain determined by DVS ([2]; at 95% relative humidity): 4.07 weight % |
| stable | 0% | 0.01% | 0.02% | 0.02% | 0.03% | 0.03% | 0.04% | 0.05% | 0.05% | 0.06% | O=C(O)c1ccc2c(c1)CCCC(c1ccc(Cl)cc1Cl)=C2c1ccc(O[C@H]2CCN(CCCF)C2)cc1 [anhydrate crystalline Form 2, 6-(2,4-dichlorophenyl)-5-[4-[(3S)-1-(3-fluoropropyl)pyrrolidin-3-yl]oxyphenyl]-8,9-dihydro-7H-benzo[7]annulene-2-carboxylic acid] | conversion after exposure to moisture ([1]; exposure to moisture): does not convert to another crystalline form; effect of temperature variations on crystal structure ([1]; exposure to temperature variations): does not alter the crystal structure before its melting; stability under ambient conditions of temperature and pressure ([1]; room temperature and ambient pressure): thermodynamically more stable; hygroscopicity (in words) ([2]; 0 to 95% relative humidity, about 25° C., European pharmacopoeia wording): no hygroscopicity; Change in Mass (water uptake) [2]: 0.06% |
| metastable | 0.00% | 0.78% | 1.13% | 1.29% | 1.46% | 2.21% | 2.46% | 2.62% | 2.73% | 2.84% | O=C(O)c1ccc2c(c1)CCCC(c1ccc(Cl)cc1Cl)=C2c1ccc(O[C@H]2CCN(CCCF)C2)cc1 [anhydrate crystalline Form 3, 6-(2,4-dichlorophenyl)-5-[4-[(3S)-1-(3-fluoropropyl)pyrrolidin-3-yl]oxyphenyl]-8,9-dihydro-7H-benzo[7]annulene-2-carboxylic acid] | Change in Mass (water uptake) [2]: 2.92%; weight gain determined by DVS ([2]; at 95% relative humidity): 2.92 weight % |
| metastable | 0.00% | 0.07% | 0.21% | 0.34% | 0.43% | 0.51% | 0.58% | 0.64% | 0.71% | 0.75% | O=C(O)c1ccc2c(c1)CCCC(c1ccc(Cl)cc1Cl)=C2c1ccc(O[C@H]2CCN(CCCF)C2)cc1 [anhydrate crystalline Form 4, 6-(2,4-dichlorophenyl)-5-[4-[(3S)-1-(3-fluoropropyl)pyrrolidin-3-yl]oxyphenyl]-8,9-dihydro-7H-benzo[7]annulene-2-carboxylic acid] | weight gain determined by DVS ([2]; at 90% relative humidity): 0.75 weight % |
| physically unstable | – | – | – | – | – | – | – | – | – | – | O=C(O)c1ccc2c(c1)CCCC(c1ccc(Cl)cc1Cl)=C2c1ccc(O[C@H]2CCN(CCCF)C2)cc1 [butanol solvate] | result of exposure to ambient conditions or dry nitrogen [1]: converts to an amorphous form |
| – | – | – | – | – | – | – | – | – | – | – | O=C(O)c1ccc2c(c1)CCCC(c1ccc(Cl)cc1Cl)=C2c1ccc(O[C@H]2CCN(CCCF)C2)cc1 [compound of formula (1), 6-(2,4-dichlorophenyl)-5-[4-[(3S)-1-(3-fluoropropyl)pyrrolidin-3-yl]oxyphenyl]-8,9-dihydro-7H-benzo[7]annulene-2-carboxylic acid] | storage requirement for stability over time ([1]; amorphous form, industrial scale handling): needs storage under refrigerated conditions to maintain its stability over time |
| unstable | – | – | – | – | – | – | – | – | – | – | O=C(O)c1ccc2c(c1)CCCC(c1ccc(Cl)cc1Cl)=C2c1ccc(O[C@H]2CCN(CCCF)C2)cc1 [ethanol solvate] | result of exposure to heat and/or moisture [1]: formation of the anhydrate Form 1 |
